Reference: US20050101632A1, “Method for the treatment of inflammation” (priority 2000, published 2005)

Tested on: oxazolone-induced hypersensitivity reaction in oxazolone-sensitized mice
Assay: Oxazolone-induced delayed-type hypersensitivity (dermal sensitization) in mice
Format: in vivo, CD1 mice

In the case of `C[C@]12CCC(=O)C=C1CC[C@@H]1[C@@H]2[C@@H](O)C[C@@]2(C)[C@H]1CC[C@]2(O)C(=O)CO` [hydrocortisone], the “body weight (systemic effect)” value (1% hydrocortisone topical during the challenges, FIG. 7) is reported as “decrease of body weight”, the “suppression of mean increase of ear thickness (MIET)” value (first challenge (acute inflammation), 1% topical twice daily, FIG. 4) is reported as 74% and the “erythema of the ear” value (first challenge, topical twice daily) is reported as “reduced erythema of the ear”.
